Measurements: PubChem BioAssay (NCI)
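96-well plates; 48 h exposure; 5 concentrations. Endpoints by linear interpolation between flanking doses. Not reached: highest tested concentration assigned. At the GI50, growth is halved. TGI denotes the concentration required for complete inhibition of growth.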

What was measured:
Experiment in all cases: NCI tumour cell line growth inhibition, 48 h
SK-MEL-28 melanoma = tested on: SK-MEL-28 melanoma
ACHN renal = tested on: ACHN renal
DU-145 prostate = tested on: DU-145 prostate
SK-MEL-2 melanoma = tested on: SK-MEL-2 melanoma
SK-OV-3 ovarian = tested on: SK-OV-3 ovarian
PC-3 prostate = tested on: PC-3 prostate
SN12C renal = tested on: SN12C renal
MDA-MB-435 = tested on: MDA-MB-435
NCI-H23 lung = tested on: NCI-H23 lung
TK-10 renal = tested on: TK-10 renal
HCC-2998 colon = tested on: HCC-2998 colon
OVCAR-3 ovarian = tested on: OVCAR-3 ovarian
MALME-3M melanoma = tested on: MALME-3M melanoma
MDA-MB-231 breast = tested on: MDA-MB-231 breast
NCI-H226 lung = tested on: NCI-H226 lung
OVCAR-5 ovarian = tested on: OVCAR-5 ovarian
HS 578T breast = tested on: HS 578T breast
A549 NSCLC = tested on: A549 NSCLC
IGROV1 ovarian = tested on: IGROV1 ovarian
NCI-H522 lung = tested on: NCI-H522 lung
T-47D breast = tested on: T-47D breast
EKVX NSCLC = tested on: EKVX NSCLC
OVCAR-8 ovarian = tested on: OVCAR-8 ovarian
HCT-15 colon = tested on: HCT-15 colon
MCF7 breast = tested on: MCF7 breast
HL-60(TB) leukemia = tested on: HL-60(TB) leukemia
U251 CNS = tested on: U251 CNS
SNB-19 CNS = tested on: SNB-19 CNS
HOP-62 NSCLC = tested on: HOP-62 NSCLC
OVCAR-4 ovarian = tested on: OVCAR-4 ovarian
UO-31 renal = tested on: UO-31 renal
UACC-257 melanoma = tested on: UACC-257 melanoma
NCI/ADR-RES ovarian = tested on: NCI/ADR-RES ovarian
COLO 205 colon = tested on: COLO 205 colon
NCI-H460 lung = tested on: NCI-H460 lung
SF-539 CNS = tested on: SF-539 CNS
SF-268 CNS = tested on: SF-268 CNS
SNB-75 CNS = tested on: SNB-75 CNS
SF-295 CNS = tested on: SF-295 CNS
786-0 renal = tested on: 786-0 renal
BT-549 breast = tested on: BT-549 breast
RXF 393 renal = tested on: RXF 393 renal
SK-MEL-5 melanoma = tested on: SK-MEL-5 melanoma
M14 melanoma = tested on: M14 melanoma
A498 renal = tested on: A498 renal
HT29 colon = tested on: HT29 colon
KM12 colon = tested on: KM12 colon
HOP-92 NSCLC = tested on: HOP-92 NSCLC
UACC-62 melanoma = tested on: UACC-62 melanoma
LOX IMVI melanoma = tested on: LOX IMVI melanoma
MOLT-4 leukemia = tested on: MOLT-4 leukemia
CCRF-CEM leukemia = tested on: CCRF-CEM leukemia
K-562 leukemia = tested on: K-562 leukemia
HCT-116 colon = tested on: HCT-116 colon
CAKI-1 renal = tested on: CAKI-1 renal
SW-620 colon = tested on: SW-620 colon
RPMI-8226 leukemia = tested on: RPMI-8226 leukemia

CN1c2ccccc2C(C)(C)C12CC(c1ccc(Cl)c(S(=O)(=O)N3CCCC3)c1)=NO2 (stereo unspecified)
GI50 (SK-MEL-28 melanoma): > 100 µM
TGI (SK-MEL-28 melanoma): > 100 µM
GI50 (ACHN renal): > 100 µM
TGI (ACHN renal): > 100 µM
GI50 (DU-145 prostate): > 100 µM
TGI (DU-145 prostate): > 100 µM
GI50 (SK-MEL-2 melanoma): > 100 µM
TGI (SK-MEL-2 melanoma): > 100 µM
GI50 (SK-OV-3 ovarian): > 100 µM
TGI (SK-OV-3 ovarian): > 100 µM
GI50 (PC-3 prostate): 59 µM
TGI (PC-3 prostate): > 100 µM
GI50 (SN12C renal): > 100 µM
TGI (SN12C renal): > 100 µM
GI50 (MDA-MB-435): > 100 µM
TGI (MDA-MB-435): > 100 µM
GI50 (NCI-H23 lung): > 100 µM
TGI (NCI-H23 lung): > 100 µM
GI50 (TK-10 renal): > 100 µM
TGI (TK-10 renal): > 100 µM
GI50 (HCC-2998 colon): > 100 µM
TGI (HCC-2998 colon): > 100 µM
GI50 (OVCAR-3 ovarian): > 100 µM
TGI (OVCAR-3 ovarian): > 100 µM
GI50 (MALME-3M melanoma): > 100 µM
TGI (MALME-3M melanoma): > 100 µM
GI50 (MDA-MB-231 breast): > 100 µM
TGI (MDA-MB-231 breast): > 100 µM
GI50 (NCI-H226 lung): > 100 µM
TGI (NCI-H226 lung): > 100 µM
GI50 (OVCAR-5 ovarian): > 100 µM
TGI (OVCAR-5 ovarian): > 100 µM
GI50 (HS 578T breast): > 100 µM
TGI (HS 578T breast): > 100 µM
GI50 (A549 NSCLC): > 100 µM
TGI (A549 NSCLC): > 100 µM
GI50 (IGROV1 ovarian): > 100 µM
TGI (IGROV1 ovarian): > 100 µM
GI50 (NCI-H522 lung): > 100 µM
TGI (NCI-H522 lung): > 100 µM
GI50 (T-47D breast): > 100 µM
TGI (T-47D breast): > 100 µM
GI50 (EKVX NSCLC): > 100 µM
TGI (EKVX NSCLC): > 100 µM
GI50 (OVCAR-8 ovarian): > 100 µM
TGI (OVCAR-8 ovarian): > 100 µM
GI50 (HCT-15 colon): 0.118 µM
TGI (HCT-15 colon): > 100 µM
GI50 (MCF7 breast): > 100 µM
TGI (MCF7 breast): > 100 µM
GI50 (HL-60(TB) leukemia): > 100 µM
TGI (HL-60(TB) leukemia): > 100 µM
GI50 (U251 CNS): 0.531 µM
TGI (U251 CNS): > 100 µM
GI50 (SNB-19 CNS): > 100 µM
TGI (SNB-19 CNS): > 100 µM
GI50 (HOP-62 NSCLC): 83.7 µM
TGI (HOP-62 NSCLC): > 100 µM
GI50 (OVCAR-4 ovarian): > 100 µM
TGI (OVCAR-4 ovarian): > 100 µM
GI50 (UO-31 renal): > 100 µM
TGI (UO-31 renal): > 100 µM
GI50 (UACC-257 melanoma): > 100 µM
TGI (UACC-257 melanoma): > 100 µM
GI50 (NCI/ADR-RES ovarian): > 100 µM
TGI (NCI/ADR-RES ovarian): > 100 µM
GI50 (COLO 205 colon): > 100 µM
TGI (COLO 205 colon): > 100 µM
GI50 (NCI-H460 lung): 0.375 µM
TGI (NCI-H460 lung): > 100 µM
GI50 (SF-539 CNS): > 100 µM
TGI (SF-539 CNS): > 100 µM
GI50 (SF-268 CNS): > 100 µM
TGI (SF-268 CNS): > 100 µM
GI50 (SNB-75 CNS): > 100 µM
TGI (SNB-75 CNS): > 100 µM
GI50 (SF-295 CNS): > 100 µM
TGI (SF-295 CNS): > 100 µM
GI50 (786-0 renal): > 100 µM
TGI (786-0 renal): > 100 µM
GI50 (BT-549 breast): > 100 µM
TGI (BT-549 breast): > 100 µM
GI50 (RXF 393 renal): > 100 µM
TGI (RXF 393 renal): > 100 µM
GI50 (SK-MEL-5 melanoma): 0.456 µM
TGI (SK-MEL-5 melanoma): > 100 µM
GI50 (M14 melanoma): > 100 µM
TGI (M14 melanoma): > 100 µM
GI50 (A498 renal): > 100 µM
TGI (A498 renal): > 100 µM

COc1cc2c3c(n(C)c(=O)c2cc1OC)-c1cc2c(cc1/C3=C\[C@@H](N)CCCCN)OCO2
GI50 (HT29 colon): 0.337 µM
TGI (HT29 colon): > 100 µM
GI50 (SK-MEL-28 melanoma): 1.39 µM
TGI (SK-MEL-28 melanoma): > 100 µM
GI50 (ACHN renal): 2.46 µM
TGI (ACHN renal): > 41.4 µM
GI50 (KM12 colon): 1.58 µM
TGI (KM12 colon): > 100 µM
GI50 (DU-145 prostate): 0.717 µM
TGI (DU-145 prostate): 37 µM
GI50 (SK-MEL-2 melanoma): 13.2 µM
TGI (SK-MEL-2 melanoma): > 100 µM
GI50 (SK-OV-3 ovarian): > 26.2 µM
TGI (SK-OV-3 ovarian): > 100 µM
GI50 (PC-3 prostate): 2.71 µM
TGI (PC-3 prostate): > 53.1 µM
GI50 (HOP-92 NSCLC): 1.7 µM
TGI (HOP-92 NSCLC): 29.4 µM
GI50 (UACC-62 melanoma): 0.467 µM
TGI (UACC-62 melanoma): 7.38 µM
GI50 (SN12C renal): 0.46 µM
TGI (SN12C renal): 6.95 µM
GI50 (MDA-MB-435): 2.81 µM
TGI (MDA-MB-435): > 100 µM
GI50 (NCI-H23 lung): 1.29 µM
TGI (NCI-H23 lung): 20.5 µM
GI50 (TK-10 renal): 7.12 µM
TGI (TK-10 renal): > 75 µM
GI50 (HCC-2998 colon): 2.99 µM
TGI (HCC-2998 colon): 45.9 µM
GI50 (OVCAR-3 ovarian): 3.83 µM
TGI (OVCAR-3 ovarian): 58.9 µM
GI50 (MALME-3M melanoma): 1.84 µM
TGI (MALME-3M melanoma): 13.3 µM
GI50 (LOX IMVI melanoma): 0.298 µM
TGI (LOX IMVI melanoma): 3.9 µM
GI50 (MDA-MB-231 breast): 1.54 µM
TGI (MDA-MB-231 breast): > 48.5 µM
GI50 (NCI-H226 lung): 1.48 µM
TGI (NCI-H226 lung): 18.4 µM
GI50 (MOLT-4 leukemia): 0.389 µM
TGI (MOLT-4 leukemia): 3.45 µM
GI50 (OVCAR-5 ovarian): 5.14 µM
TGI (OVCAR-5 ovarian): > 100 µM
GI50 (HS 578T breast): 15.9 µM
TGI (HS 578T breast): 81.8 µM
GI50 (A549 NSCLC): 0.381 µM
GI50 (IGROV1 ovarian): 2.24 µM
TGI (IGROV1 ovarian): > 100 µM
GI50 (NCI-H522 lung): 1.37 µM
TGI (NCI-H522 lung): > 23.2 µM
GI50 (T-47D breast): 13 µM
TGI (T-47D breast): > 100 µM
GI50 (CCRF-CEM leukemia): 0.996 µM
TGI (CCRF-CEM leukemia): > 100 µM
GI50 (K-562 leukemia): 2.43 µM
TGI (K-562 leukemia): > 72.2 µM
GI50 (HCT-116 colon): 0.329 µM
TGI (HCT-116 colon): 14.4 µM
GI50 (EKVX NSCLC): 4.56 µM
TGI (EKVX NSCLC): 75.9 µM
GI50 (OVCAR-8 ovarian): 2.66 µM
TGI (OVCAR-8 ovarian): > 45.8 µM
GI50 (HCT-15 colon): 60.3 µM
TGI (HCT-15 colon): > 100 µM
GI50 (MCF7 breast): 0.657 µM
TGI (MCF7 breast): > 49.3 µM
GI50 (HL-60(TB) leukemia): 2.15 µM
TGI (HL-60(TB) leukemia): 8.73 µM
GI50 (U251 CNS): < 0.0209 µM
TGI (U251 CNS): 7.41 µM
GI50 (SNB-19 CNS): 1.46 µM
TGI (SNB-19 CNS): > 100 µM
GI50 (HOP-62 NSCLC): 3.14 µM
TGI (HOP-62 NSCLC): 26.9 µM
GI50 (OVCAR-4 ovarian): 1.26 µM
TGI (OVCAR-4 ovarian): 99 µM
GI50 (UO-31 renal): 8 µM
TGI (UO-31 renal): > 100 µM
GI50 (UACC-257 melanoma): 5.24 µM
TGI (UACC-257 melanoma): > 52.8 µM
GI50 (NCI/ADR-RES ovarian): 29.7 µM
TGI (NCI/ADR-RES ovarian): > 100 µM
GI50 (COLO 205 colon): 2.8 µM
TGI (COLO 205 colon): > 86.3 µM
GI50 (NCI-H460 lung): 0.707 µM
TGI (NCI-H460 lung): > 82.9 µM
GI50 (SF-539 CNS): 0.335 µM
TGI (SF-539 CNS): 12.5 µM
GI50 (SF-268 CNS): 1.86 µM
TGI (SF-268 CNS): > 42 µM
GI50 (SNB-75 CNS): 0.985 µM
TGI (SNB-75 CNS): > 41.3 µM
GI50 (SF-295 CNS): 4.3 µM
TGI (SF-295 CNS): > 100 µM
GI50 (786-0 renal): 2.06 µM
TGI (786-0 renal): > 100 µM
GI50 (CAKI-1 renal): 4.26 µM
TGI (CAKI-1 renal): > 75.1 µM
GI50 (SW-620 colon): 1.57 µM
TGI (SW-620 colon): > 100 µM
GI50 (RPMI-8226 leukemia): 2.57 µM
TGI (RPMI-8226 leukemia): 35.2 µM
GI50 (BT-549 breast): 4.52 µM
TGI (BT-549 breast): 28.3 µM
GI50 (RXF 393 renal): 12.7 µM
TGI (RXF 393 renal): > 50.9 µM
GI50 (M14 melanoma): 6.9 µM
TGI (M14 melanoma): > 100 µM
GI50 (A498 renal): 5.14 µM
TGI (A498 renal): 33.9 µM
